From the supplement of paper PMC4862054 come the findings set out here.

Assay in all cases: normalised viability (% of control), CellTiter-Blue; higher = more viable cells (about 100 = DMSO control)
Common to all, as to conditions: incubation time: 72 h
(The colour change of resazurin is a common sign of viable cells or microbes.)

Assay [1] relates to CAL-148. The procedure: (§1)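 DSRT, CellTiter-Blue viability, 72 h incubation. Signal is normalised to DMSO and benzethonium chloride controls. Value is the normalised response at dose 8.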
In assay [2] the test system is HDQ-P1. How it is done:
as §1

Assay [3] concerns CAL-51. How it is done: as §1
Assay [4] has as its system MDA-MB-453. The procedure: as §1
For assay [5], the system named is CAL-85-1. The procedure:
as §1

The subject of assay [6] is DU-4475. How it is done: as §1
Assay [7] relates to CAL-148. How it is done:
(§2)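 DSRT, CellTiter-Blue viability, 72 h incubation. Signal is normalised to DMSO and benzethonium chloride controls. Value is the normalised response at dose 6.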
This is another data set of the same source.

In assay [8] the test system is HDQ-P1. How it is done: as §2
This is another data set of the same source.

Assay [9] has as its system CAL-51. How it is done:
as §2
The source holds these as a separate data set.

Assay [10] relates to MDA-MB-453. The procedure:
as §2
The source holds these as a separate data set.

Assay [11] has as its system CAL-85-1. How it is done: as §2
This is another data set of the same source.

Assay [12] relates to DU-4475. How it is done: as §2
The source holds these as a separate data set.

Values joined by “and” are separate entries in the source; they are usually repeats but may differ in a detail not shown here. Equal values may be shown once.

In the case of `Cc1ccc(NC(=O)c2ccc(CN3CCN(C)CC3)cc2)cc1Nc1nc(-c2cccnc2)cs1` [Masitinib] (3000 nM), the normalised viability was found to be 74.8% in the assay on CAL-148 [1]; 103% in the assay with HDQ-P1 [2]; 115% in the assay with CAL-51 [3]; 65.5% in the assay on MDA-MB-453 [4]; 94% in the assay with CAL-85-1 [5]; 125% in the assay on DU-4475 [6].
For the molecule `O=P1(N(CCCl)CCCl)NCCCO1` (centres undefined) [Cyclophosphamide] (12000 nM), the normalised viability with CAL-148 [1] is 97.2%; with HDQ-P1 [2], 110%; in the assay with CAL-51 [3], 105%; in the assay with MDA-MB-453 [4] it was 109%; in the assay on CAL-85-1 [5] it was 93.7%; in the assay on DU-4475 [6], 104%.
As to `O=C(/C=C/c1cccc(S(=O)(=O)Nc2ccccc2)c1)NO` [Belinostat] (300 nM), the normalised viability in the assay with CAL-148 [7] turned out to be 49.3%; with HDQ-P1 [8], 26.6%; in the assay on CAL-51 [9], 105%; in the assay on MDA-MB-453 [10] it was 16.9%; in the assay on CAL-85-1 [11] it was 72.5%; with DU-4475 [12] it was 59.2%.
Take `N#Cc1ccc(COC[C@H]2O[C@@H](n3c(NCc4ccc(Cl)c(Cl)c4)nc4c(N)ncnc43)[C@H](O)[C@@H]2O)cc1` (3000 nM): the normalised viability turned out to be 87.7% in the assay with CAL-148 [1]; 89.5% with HDQ-P1 [2]; 99.3% in the assay on CAL-51 [3]; 96% in the assay with MDA-MB-453 [4]; 93% in the assay on CAL-85-1 [5]; 82.7% in the assay with DU-4475 [6].
Take `NC(=O)c1ccc(I)c([N+](=O)[O-])c1` [Iniparib] (3000 nM): the normalised viability with CAL-148 [1] is 97%; in the assay on HDQ-P1 [2] it was 93.9%; in the assay with CAL-51 [3], 93.8%; with MDA-MB-453 [4], 85.1%; in the assay on CAL-85-1 [5], 84.5%; in the assay on DU-4475 [6] it was 88.1%.
For the molecule `N#Cc1ccc(COC[C@H]2O[C@@H](n3c(NCc4ccc(Cl)c(Cl)c4)nc4c(N)ncnc43)[C@H](O)[C@@H]2O)cc1` (300 nM), the normalised viability in the assay on CAL-148 [7] worked out at 110%; with HDQ-P1 [8], 67%; with CAL-51 [9], 117%; in the assay with MDA-MB-453 [10], 112%; in the assay with CAL-85-1 [11] it was 96.9%; with DU-4475 [12], 91.7%.
For the molecule `Nc1cc(C(F)(F)F)c(-c2cc(N3CCOCC3)nc(N3CCOCC3)n2)cn1` [BKM-120] (3000 nM), the normalised viability came out at 18.8% with CAL-148 [1]; 27.7% with HDQ-P1 [2]; 10.4% in the assay on CAL-51 [3]; 11.9% with MDA-MB-453 [4]; 27.3% with CAL-85-1 [5]; 38% with DU-4475 [6].
As for `COCC1(CO)C(=O)C2CCN1CC2` (centres undefined) [Prima-1 Met] (3000 nM), the normalised viability in the assay with CAL-148 [1] turned out to be 89.1%; in the assay with HDQ-P1 [2], 77.5%; in the assay with CAL-51 [3], 97.2%; in the assay on MDA-MB-453 [4] it was 100%; with CAL-85-1 [5] it was 91.4%; in the assay with DU-4475 [6], 101%.
`O=C(/C=C/c1cccc(S(=O)(=O)Nc2ccccc2)c1)NO` [Belinostat] (3000 nM): the normalised viability in the assay with CAL-148 [1] was 3.16%; in the assay on HDQ-P1 [2], 39.1%; in the assay with CAL-51 [3], 9.77%; in the assay with MDA-MB-453 [4] it was 2.18%; with CAL-85-1 [5], 16.4%; in the assay with DU-4475 [6], 1.84%.
As to `COc1cc2ncnc(Nc3ccc(F)c(Cl)c3)c2cc1OCCCN1CCOCC1` [Gefitinib] (300 nM), the normalised viability with CAL-148 [7] is 95.6% and 84.7%; with HDQ-P1 [8], 64% and 66.2%; with CAL-51 [9] it was 104% and 106%; in the assay with MDA-MB-453 [10], 98.2% and 83.2%; with CAL-85-1 [11], 69.8% and 65.9%; with DU-4475 [12] it was 83.8% and 84.4%.
On to `COC(=O)c1ccc2c(c1)NC(=O)/C2=C(\Nc1ccc(N(C)C(=O)CN2CCN(C)CC2)cc1)c1ccccc1` [BIBF 1120] (3000 nM), for which the normalised viability turned out to be 94.8% with CAL-148 [1]; 91% with HDQ-P1 [2]; 62.7% in the assay on CAL-51 [3]; 59.8% with MDA-MB-453 [4]; 91.1% in the assay on CAL-85-1 [5]; 97.1% with DU-4475 [6].
Regarding `O=C(Nc1cccnc1)N1CCC(Cc2cccc(Oc3ccc(C(F)(F)F)cn3)c2)CC1` [PF-3845] (3000 nM), the normalised viability was 97.9% with CAL-148 [1]; 122% with HDQ-P1 [2]; 93.2% in the assay on CAL-51 [3]; 62.1% with MDA-MB-453 [4]; 93.9% in the assay with CAL-85-1 [5]; 93.9% with DU-4475 [6].
Consider `CO[C@H]1C[C@@H]2CC[C@@H](C)[C@@](O)(O2)C(=O)C(=O)N2CCCC[C@H]2C(=O)O[C@H]([C@H](C)C[C@@H]2CC[C@@H](OP(C)(C)=O)[C@H](OC)C2)CC(=O)[C@H](C)/C=C(\C)[C@@H](O)[C@@H](OC)C(=O)[C@H](C)C[C@H](C)/C=C/C=C/C=C/1C` [Ridaforolimus] (300 nM), for which the normalised viability in the assay on CAL-148 [1] was found to be 34.2%; in the assay on HDQ-P1 [2] it was 65.8%; in the assay with CAL-51 [3], 35.5%; with MDA-MB-453 [4] it was 28.5%; with CAL-85-1 [5], 55.4%; in the assay on DU-4475 [6] it was 51.7%.
As for `COCC[n+]1c2c(n(Cc3cnccn3)c1C)C(=O)c1ccccc1C2=O` [YM155] (300 nM), the normalised viability in the assay with CAL-148 [7] was 1.6%; in the assay on HDQ-P1 [8], -0.08%; in the assay on CAL-51 [9] it was 2.3%; in the assay with MDA-MB-453 [10], 10.9%; in the assay on CAL-85-1 [11], 1.89%; with DU-4475 [12], 10.8%.
Regarding `CCc1c2c(nc3ccc(OC(=O)N4CCC(N5CCCCC5)CC4)cc13)-c1cc3c(c(=O)n1C2)COC(=O)[C@]3(O)CC` [Irinotecan] (300 nM), the normalised viability in the assay with CAL-148 [7] was 82.5% and 96.9%; in the assay on HDQ-P1 [8], 64.5% and 88.1%; with CAL-51 [9], 101% and 105%; in the assay on MDA-MB-453 [10], 97.6% and 103%; with CAL-85-1 [11], 81.2% and 99.8%; in the assay on DU-4475 [12], 74.1% and 85.6%.
As for `COC(=O)c1ccc2c(c1)NC(=O)/C2=C(\Nc1ccc(N(C)C(=O)CN2CCN(C)CC2)cc1)c1ccccc1` [BIBF 1120] (300 nM), the normalised viability in the assay with CAL-148 [7] was 96.1%; with HDQ-P1 [8], 100%; in the assay on CAL-51 [9] it was 93.9%; in the assay with MDA-MB-453 [10], 105%; with CAL-85-1 [11], 111%; in the assay on DU-4475 [12], 91.9%.
`CO[C@H]1C[C@@H]2CC[C@@H](C)[C@@](O)(O2)C(=O)C(=O)N2CCCC[C@H]2C(=O)O[C@H]([C@H](C)C[C@@H]2CC[C@@H](OP(C)(C)=O)[C@H](OC)C2)CC(=O)[C@H](C)/C=C(\C)[C@@H](O)[C@@H](OC)C(=O)[C@H](C)C[C@H](C)/C=C/C=C/C=C/1C` [Ridaforolimus] (30 nM): the normalised viability was 40.8% in the assay on CAL-148 [7]; 72.4% in the assay with HDQ-P1 [8]; 37.9% with CAL-51 [9]; 27.9% with MDA-MB-453 [10]; 53.8% in the assay with CAL-85-1 [11]; 54% in the assay with DU-4475 [12].
As for `O=C(Nc1cccnc1)N1CCC(Cc2cccc(Oc3ccc(C(F)(F)F)cn3)c2)CC1` [PF-3845] (300 nM), the normalised viability is 103% with CAL-148 [7]; 127% in the assay with HDQ-P1 [8]; 97.9% in the assay with CAL-51 [9]; 98.4% with MDA-MB-453 [10]; 93% with CAL-85-1 [11]; 95.4% in the assay on DU-4475 [12].
On to `CN(C)c1nc(N(C)C)nc(N(C)C)n1` [Altretamine] (300 nM), for which the normalised viability worked out at 112% in the assay on CAL-148 [7]; 88.5% with HDQ-P1 [8]; 108% in the assay on CAL-51 [9]; 112% in the assay with MDA-MB-453 [10]; 95.9% in the assay with CAL-85-1 [11]; 110% in the assay on DU-4475 [12].
